In patent US10538498B2, “1,3,4-oxadiazole sulfonamide derivative compounds as histone deacetylase 6 inhibitor, and the pharmaceutical composition comprising the same” (Chong Kun Dang Pharmaceutical Corp., priority 2015, dated 2020):

Target: T1, human recombinant HDAC6 (Homo sapiens, UniProt Q9UBN7)
T1 construct: purchased Calbiochem 382180
T1 sequence (Q9UBN7 1-1215): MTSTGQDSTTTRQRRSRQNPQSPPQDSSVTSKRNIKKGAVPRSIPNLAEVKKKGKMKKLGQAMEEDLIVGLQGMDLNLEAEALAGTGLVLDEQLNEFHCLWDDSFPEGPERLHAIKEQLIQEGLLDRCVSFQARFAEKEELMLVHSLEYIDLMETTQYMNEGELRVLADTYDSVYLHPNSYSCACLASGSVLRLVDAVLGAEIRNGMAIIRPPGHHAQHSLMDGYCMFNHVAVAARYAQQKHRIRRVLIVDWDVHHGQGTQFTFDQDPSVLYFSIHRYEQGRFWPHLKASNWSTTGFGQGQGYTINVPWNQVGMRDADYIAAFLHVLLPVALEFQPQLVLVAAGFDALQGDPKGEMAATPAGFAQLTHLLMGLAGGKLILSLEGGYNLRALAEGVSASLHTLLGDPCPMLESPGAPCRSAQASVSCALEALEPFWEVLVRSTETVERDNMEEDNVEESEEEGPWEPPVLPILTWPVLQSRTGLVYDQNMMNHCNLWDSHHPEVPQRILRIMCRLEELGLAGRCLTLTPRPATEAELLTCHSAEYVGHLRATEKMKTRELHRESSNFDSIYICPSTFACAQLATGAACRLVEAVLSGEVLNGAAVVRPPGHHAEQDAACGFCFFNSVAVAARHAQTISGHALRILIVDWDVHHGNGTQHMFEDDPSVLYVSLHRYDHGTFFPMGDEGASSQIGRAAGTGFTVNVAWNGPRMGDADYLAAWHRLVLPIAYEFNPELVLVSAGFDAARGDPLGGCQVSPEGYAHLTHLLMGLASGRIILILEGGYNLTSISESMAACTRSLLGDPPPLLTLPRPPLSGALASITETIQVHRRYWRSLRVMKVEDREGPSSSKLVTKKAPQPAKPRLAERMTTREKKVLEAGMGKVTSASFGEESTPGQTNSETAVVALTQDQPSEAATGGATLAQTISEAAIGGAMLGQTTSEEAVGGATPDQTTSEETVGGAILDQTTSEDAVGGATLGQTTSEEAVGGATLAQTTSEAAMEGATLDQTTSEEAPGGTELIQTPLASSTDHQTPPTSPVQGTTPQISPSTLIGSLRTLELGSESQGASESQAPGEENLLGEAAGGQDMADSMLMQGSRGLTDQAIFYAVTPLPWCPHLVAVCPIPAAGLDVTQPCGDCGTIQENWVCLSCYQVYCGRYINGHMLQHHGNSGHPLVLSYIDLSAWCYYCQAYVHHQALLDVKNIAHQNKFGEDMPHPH
Test: HDAC6 enzyme activity inhibition assay (HDAC Fluorimetric Drug Discovery Kit)
Assay type: biochemical
Conditions: for HDAC6 selectivity (fold): HDAC1 vs HDAC6; for IC50: same protocol as the HDAC1 enzyme activity test
Outline: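 Human recombinant enzyme, 0.3 μg, incubated with 10 μM Fluor de Lys-SIRT1 substrate and 5-fold compound dilutions at 30° C for 60 min. Developer II added for 30 min, then fluorescence read (Ex 360/Em 460). IC50 values derived from the fluorescence data.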

## CCS(=O)(=O)N(Cc1ccc(-c2nnc(C(F)F)o2)cc1F)c1cccc(CN2CCS(=O)(=O)CC2)c1 [Compound 11392, N-(4-(5-(difluoromethyl)-1,3,4-oxadiazol-2-yl)-2-fluorobenzyl)-N-(3-((1,1-dioxidothiomorpholino)methyl)phenyl)ethanesulfonamide]
  HDAC6 selectivity (fold): 1000 fold
  IC50: 100 nM

## CCS(=O)(=O)N(Cc1ccc(-c2nnc(C(F)F)o2)cc1F)c1ccc(CN2CCN(C(C)=O)CC2)cc1 [Compound 11402, N-(4-((4-acetylpiperazin-1-yl)methyl)phenyl)-N-(4-(5-(difluoromethyl)-1,3,4-oxadiazol-2-yl)-2-fluorobenzyl)ethanesulfonamide]
  HDAC6 selectivity (fold): 1316 fold
  IC50: 76 nM

## CCS(=O)(=O)N(Cc1ccc(-c2nnc(C(F)F)o2)cc1F)c1cccc(CN2CCN(C(C)=O)CC2)c1 [Compound 11403, N-(3-((4-acetylpiperazin-1-yl)methyl)phenyl)-N-(4-(5-(difluoromethyl)-1,3,4-oxadiazol-2-yl)-2-fluorobenzyl)ethanesulfonamide]
  HDAC6 selectivity (fold): 1282 fold
  IC50: 78 nM

## CCS(=O)(=O)N(Cc1ccc(-c2nnc(C(F)F)o2)cc1F)c1cccc(CN2CCN(S(C)(=O)=O)CC2)c1 [Compound 11404, N-(4-(5-(difluoromethyl)-1,3,4-oxadiazol-2-yl)-2-fluorobenzyl)-N-(3-((4-(methylsulfonyl)piperazin-1-yl)methyl)phenyl)ethanesulfonamide]
  HDAC6 selectivity (fold): 952 fold
  IC50: 105 nM

## CCS(=O)(=O)N(Cc1ccc(-c2nnc(C(F)F)o2)cc1F)c1cccc(CN2CCN(C)CC2)c1 [Compound 11405, N-(4-(5-(difluoromethyl)-1,3,4-oxadiazol-2-yl)-2-fluorobenzyl)-N-(3-((4-methylpiperazin-1-yl)methyl)phenyl)ethanesulfonamide]
  HDAC6 selectivity (fold): 1493 fold
  IC50: 67 nM

## CCS(=O)(=O)N(Cc1ccc(-c2nnc(C(F)(F)F)o2)cc1F)c1cccc(CN2CCN(C(C)=O)CC2)c1 [Compound 11406, N-(3-((4-acetylpiperazin-1-yl)methyl)phenyl)-N-(2-fluoro-4-(5-(trifluoromethyl)-1,3,4-oxadiazol-2-yl)benzyl)ethanesulfonamide]
  HDAC6 selectivity (fold): 435 fold
  IC50: 230 nM

## CCS(=O)(=O)N(Cc1ccc(-c2nnc(C(F)F)o2)cn1)c1ccc(F)c(Cl)c1 [Compound 11411, N-(3-chloro-4-fluorophenyl)-N-((5-(5-(difluoromethyl)-1,3,4-oxadiazol-2-yl)pyridin-2-yl)methyl)ethanesulfonamide]
  HDAC6 selectivity (fold): 14286 fold
  IC50: 7 nM

## CCS(=O)(=O)N(Cc1ccc(-c2nnc(C(F)F)o2)cn1)c1ccccc1 [Compound 11412, N-((5-(5-(difluoromethyl)-1,3,4-oxadiazol-2-yl)pyridin-2-yl)methyl)-N-phenylethanesulfonamide]
  HDAC6 selectivity (fold): 8333 fold
  IC50: 12 nM

## CS(=O)(=O)N1CCC(S(=O)(=O)N(Cc2ccc(-c3nnc(C(F)F)o3)cn2)c2ccccc2)CC1 [Compound 11426, N-((5-(5-(difluoromethyl)-1,3,4-oxadiazol-2-yl)pyridin-2-yl)methyl)-1-(methylsulfonyl)-N-phenylpiperidine-4-sulfonamide]
  HDAC6 selectivity (fold): 7692 fold
  IC50: 13 nM

## CCS(=O)(=O)N(Cc1ccc(-c2nnc(C(F)F)o2)cc1F)c1cccc(C2CCN(C)CC2)c1 [Compound 11427, N-(4-(5-(difluoromethyl)-1,3,4-oxadiazol-2-yl)-2-fluorobenzyl)-N-(3-(1-methylpiperidin-4-yl)phenyl)ethanesulfonamide]
  HDAC6 selectivity (fold): 352 fold
  IC50: 284 nM

## O=S(=O)(C1CCOC1)N(Cc1ccc(-c2nnc(C(F)F)o2)cn1)c1ccccc1 (centres unmarked) [Compound 11428, N-((5-(5-(difluoromethyl)-1,3,4-oxadiazol-2-yl)pyridin-2-yl)methyl)-N-phenyltetrahydrofuran-3-sulfonamide]
  HDAC6 selectivity (fold): 6667 fold
  IC50: 15 nM

## CS(=O)(=O)N(Cc1ccc(-c2nnc(C(F)F)o2)cn1)c1ccc(F)c(Cl)c1 [Compound 11433, N-(3-chloro-4-fluorophenyl)-N-((5-(5-(difluoromethyl)-1,3,4-oxadiazol-2-yl)pyridin-2-yl)methyl)methanesulfonamide]
  HDAC6 selectivity (fold): 8333 fold
  IC50: 12 nM

## CC(=O)N1CC(N2CCC(S(=O)(=O)N(Cc3ccc(-c4nnc(C(F)F)o4)cc3F)c3ccc(F)c(Cl)c3)CC2)C1 [Compound 11447, 1-(1-acetylazetidin-3-yl)-N-(3-chloro-4-fluorophenyl)-N-(4-(5-(difluoromethyl)-1,3,4-oxadiazol-2-yl)-2-fluorobenzyl)piperidine-4-sulfonamide]
  HDAC6 selectivity (fold): 5556 fold
  IC50: 18 nM

## CS(=O)(=O)N1CC(N2CCC(S(=O)(=O)N(Cc3ccc(-c4nnc(C(F)F)o4)cc3F)c3ccc(F)c(Cl)c3)CC2)C1 [Compound 11448, N-(3-chloro-4-fluorophenyl)-N-(4-(5-(difluoromethyl)-1,3,4-oxadiazol-2-yl)-2-fluorobenzyl)-1-(1-(methylsulfonyl)azetidin-3-yl)piperidine-4-sulfonamide]
  HDAC6 selectivity (fold): 4762 fold
  IC50: 21 nM

## CCS(=O)(=O)N(Cc1ccc(-c2nnc(C(F)F)o2)cc1F)c1cccc2c1cnn2C [Compound 11520, N-(4-(5-(difluoromethyl)-1,3,4-oxadiazol-2-yl)-2-fluorobenzyl)-N-(1-methyl-1H-indazol-4-yl)ethanesulfonamide]
  HDAC6 selectivity (fold): 3125 fold
  IC50: 32 nM

## CCS(=O)(=O)N(Cc1ccc(-c2nnc(C(F)F)o2)cc1F)c1cccc2cnn(C)c12 [Compound 11522, N-(4-(5-(difluoromethyl)-1,3,4-oxadiazol-2-yl)-2-fluorobenzyl)-N-(1-methyl-1H-indazol-7-yl)ethanesulfonamide]
  HDAC6 selectivity (fold): 4167 fold
  IC50: 24 nM

## CCS(=O)(=O)N(Cc1ccc(-c2nnc(C(F)F)o2)cn1)c1cccc2c1cnn2C [Compound 11539, N-((5-(5-(difluoromethyl)-1,3,4-oxadiazol-2-yl)pyridin-2-yl)methyl)-N-(1-methyl-1H-indazol-4-yl)ethanesulfonamide]
  HDAC6 selectivity (fold): 4348 fold
  IC50: 23 nM

## CCS(=O)(=O)N(Cc1ccc(-c2nnc(C(F)F)o2)cn1)c1ccc2cnn(C)c2c1 [Compound 11540, N-((5-(5-(difluoromethyl)-1,3,4-oxadiazol-2-yl)pyridin-2-yl)methyl)-N-(1-methyl-1H-indazol-6-yl)ethanesulfonamide]
  HDAC6 selectivity (fold): 10000 fold
  IC50: 10 nM

## CCS(=O)(=O)N(Cc1ccc(-c2nnc(C(F)F)o2)cn1)c1cccc2cnn(C)c12 [Compound 11541, N-((5-(5-(difluoromethyl)-1,3,4-oxadiazol-2-yl)pyridin-2-yl)methyl)-N-(1-methyl-1H-indazol-7-yl)ethanesulfonamide]
  HDAC6 selectivity (fold): 6250 fold
  IC50: 16 nM

## CN1CCN(CCS(=O)(=O)N(Cc2ccc(-c3nnc(C(F)F)o3)cc2F)c2ccc(F)c(Cl)c2)CC1 [Compound 11552, N-(3-chloro-4-fluorophenyl)-N-(4-(5-(difluoromethyl)-1,3,4-oxadiazol-2-yl)-2-fluorobenzyl)-2-(4-methylpiperazin-1-yl)ethane-1-sulfonamide]
  HDAC6 selectivity (fold): 7143 fold
  IC50: 14 nM

## CC(=O)N1CCN(CCS(=O)(=O)N(Cc2ccc(-c3nnc(C(F)F)o3)cc2F)c2ccc(F)c(Cl)c2)CC1 [Compound 11553, 2-(4-acetylpiperazin-1-yl)-N-(3-chloro-4-fluorophenyl)-N-(4-(5-(difluoromethyl)-1,3,4-oxadiazol-2-yl)-2-fluorobenzyl)ethane-1-sulfonamide]
  HDAC6 selectivity (fold): 5882 fold
  IC50: 17 nM

## CS(=O)(=O)N1CCN(CCS(=O)(=O)N(Cc2ccc(-c3nnc(C(F)F)o3)cc2F)c2ccc(F)c(Cl)c2)CC1 [Compound 11554, N-(3-chloro-4-fluorophenyl)-N-(4-(5-(difluoromethyl)-1,3,4-oxadiazol-2-yl)-2-fluorobenzyl)-2-(4-(methylsulfonyl)piperazin-1-yl)ethane-1-sulfonamide]
  HDAC6 selectivity (fold): 4348 fold
  IC50: 23 nM
